According to patent US20020048566A1, “Modulation of cellular apoptosis and methods for treating cancer” (priority 2000, published 2002):
Residues, ends and D or L forms follow the SMILES beside them. *: point of attachment. Cbz = O=C(OCc1ccccc1)*; CH2F = FC*

What was measured:
Type in all cases: cell-based, human
SW480 cell lines = assay: FACS sub-G1 content after Ad-p53 infection of SW480 stably overexpressing c-FLIP-s or Bcl-XL; conditions: stable overexpression, 48 hours after infection
From the text: Cell culture and adenoviral/retroviral infection. The culture conditions for SW480, HCT 116, and SkBr3 were maintained as previously described (Wu et al., 1997). The adrenal carcinoma cell line, SW13 was a kind gift from R. Sheikhattar (Wistar Institute). Ad-LacZ and Ad-p53 were obtained from B. Vogelstein (Johns Hopkins University) All adenoviruses were propagated, titered, and amplified as previously described (El-Deiry et al., 1993). The retroviral vector pLIB, pLIB-EGFP, pLIB-c-Flip-s, or pLIB-Bcl-XL was cotransfected with pVSVG and pCgP (Dr. Michael Malim, University of Pennsylvania) into 293T cells using the CaPO4 method. The resulting supernatant was used to infect the SW480 cell line (3×10^5 cell/well plated 48 hours before infection) at a titer necessary to obtain greater than 90% infectivity as previously described (Fouchier et al., 1997).
Transfections and fluorescence-activated cell sorting (FACS) analysis. Transfections were carried out as previously described (Wu et al., 1997). In brief, before transfection, 5×10^5 cells/6 cm well were seeded. The cells were transfected with lipofectamine Plus. Four hours after transfections the media was changed and an irreversible caspase inhibitor, Z-IETD-FMK (caspase 8) or Z-LEHD-FMK (caspase 9) was added to the media at a final concentration of 20 μM. […]

[1] = test system: adrenal carcinoma cell line SW13; assay: FACS for active caspase 3 after p53 transfection with irreversible caspase inhibitors; conditions: inhibitor 20 μM added four hours after transfection, harvested at 24 hours
Protocol: Transfections and fluorescence-activated cell sorting (FACS) analysis. Transfections were carried out as previously described (Wu et al., 1997). In brief, before transfection, 5×10^5 cells/6 cm well were seeded. The cells were transfected with lipofectamine Plus. Four hours after transfections the media was changed and an irreversible caspase inhibitor, Z-IETD-FMK (caspase 8) or Z-LEHD-FMK (caspase 9) was added to the media at a final concentration of 20 μM. Cells were harvested 24 hours after transfection and prepared for detection of active-caspase 3 by flow cytometry as previously described (Ozoren et al., 2000). For adenoviral experiments, cells were harvested 48 hours after infection and fixed and stained with propidium iodide as previously described (Ozoren et al., 2000). Cell sorting was performed.
FIG. 5. Infection of colon carcinoma cell line SW480 and breast carcinoma cell line SKBr3 with Ad-p53 results in caspase cleavage and apoptosis. (a) Western blot analysis for PARP cleavage after adenovirus infection. SW480 and SKBr3 cell lines were infected with an MOI of 50 with either Ad-LacZ or Ad-p53 and harvested at 0, 24 and 48 hours after infection. […] (b) Western blot analysis of caspase 8 and 9 cleavage after adenovirus infection. […]

SW480 cells [2] = assay: GFP-spectrin/PI flow cytometry for sub-G1 peak after transient transfection; set-up: key to Apoptotic ability (Table II): WT, able to induce apoptosis as well as wild-type protein; ±, 20-25% reduction in ability to induce apoptosis; −, completely deficient in ability to induce apoptosis
Protocol: GFP/PI Fluorescence-activated Cell Sorting Analysis for Sub-G1 Peak. SW480 cells were transfected with a 1:10 ratio of EGFP-spectrin (Kalejta, R. F., et al., Mol. Ther. 1:130-144 (2000)) and KILLER/DR5 expression plasmid. Transfections were harvested at 18 hours after transfection, processed, and analyzed for the presence of a sub-G1 peak as described previously (Ozoren, N., et al., Int. J. Oncol. 16:917-925 (2000)). 10,000 GFP-positive cells were analyzed per experiment, and three independent experiments were performed for each mutant. Percentage of apoptosis was calculated by subtracting transfection-induced sub-G1 peak (vector transfection) from each wild-type or mutant KILLER/DR5 sub-G1 peak. Figures for Tables II and III were generated by setting wild-type death to 100% (˜40% sub-G1 peak at 18 hours) in order to compare point mutants to the wild-type protein.
(§1) Conserved Hydrophobic Residues Are More Critical for Apoptotic Signaling as Compared with Conserved Charged Positions in the KILLER/DR5 DD. In order to functionally characterize the mutant receptors, this study employed three methods to assess cell death following transfection. The first method involved cotransfection of the mutant receptor along with pCMVb gal. Blue cells were counted after 40 hours in order to determine relative cell survival as compared with vector-transfected cells (number of blue cells for vector was set as equivalent to 100% survival; Table I). To specifically measure apoptosis, this study used a cotransfection based flow cytometric assay to functionally assess apoptotic signaling of each substitution mutant. Each mutant was cotransfected with an EGFP-spectrin construct at a 10:1 ratio (mutant plasmid:EGFP-spectrin plasmid) into SW480 cells for 18 hours and the presence of a sub-G1 peak was used to quantitate apoptotic signaling. […]

SW480 cells [3] = assay: Blue cell assay (cotransfection with pCMVb gal, relative cell survival); conditions: for Blue cells % of vector: blue cells counted after 40 hours, vector-transfected blue cells set to 100% survival
Protocol: Blue Cell Method. The blue cell method was performed as previously described (Meng, R. D., et al., Mol. Ther. 1:130-144 (2000)). Calculations for Table I were carried out by setting the number of vector-transfected blue cells to 100% (at least 300 cells for each independent experiment), and the wild-type and point mutants were determined as a percentage of vector transfected.
Conserved Hydrophobic Residues Are More Critical for Apoptotic Signaling as Compared with Conserved Charged Positions in the KILLER/DR5 DD. In order to functionally characterize the mutant receptors, this study employed three methods to assess cell death following transfection. The first method involved cotransfection of the mutant receptor along with pCMVb gal. Blue cells were counted after 40 hours in order to determine relative cell survival as compared with vector-transfected cells (number of blue cells for vector was set as equivalent to 100% survival; Table I). To specifically measure apoptosis, this study used a cotransfection based flow cytometric assay to functionally assess apoptotic signaling of each substitution mutant. Each mutant was cotransfected with an EGFP-spectrin construct at a 10:1 ratio (mutant plasmid:EGFP-spectrin plasmid) into SW480 cells for 18 hours and the presence of a sub-G1 peak was used to quantitate apoptotic signaling. The use of the spectrinbound GFP allowed for the identification of specifically transfected cells, and the spectrin fusion permits cell membrane retention of GFP even if cells lose membrane permeability due to cell death (Kalejta, R. F., et al., Mol. Ther. 1:130-144 (2000)). […] One example of a signaling-competent and -incompetent mutant is also shown for comparison. Table II lists the results of three independent experiments for each mutant compared with the wild-type protein after subtracting out transfection-induced death.

[4] = test system: TRAIL DISC (FADD and caspase 8 recruitment) in 293 HEK cells; assay: TRAIL DISC immunoprecipitation; conditions: 16 hours transfection, then 50 ng/ml His-tagged TRAIL 15 minutes at 37° C.
Protocol: TRAIL DISC Immunoprecipitation. 293 HEK cells were plated to achieve 80% confluence at the time of transfection in a T75. 30 ug of the indicated KILLER/DR5 plasmid was transfected by calcium phosphate for 16 hours to minimize loss of transfected cells. The cells were then trypsinized, spun down, and resuspended in 2 ml of complete medium supplemented with 50 ng/ml His tagged-TRAIL and 1 μg/ml anti-6-histidine antibody for 15 minutes at 37° C. For untreated samples, only the TRAIL was excluded. The cells were washed twice with ice-cold phosphate-buffered saline and lysed for 30 minutes on ice in TRAIL DISC IP lysis buffer (30 mM Tris, pH 7.5, 150 mM NaCl, 10% glycerol, 1% Triton X-100). The lysates were cleared twice by centrifugation at 4° C. The supernatants were immunoprecipitated overnight with 30 μl of agarose at 4° C. to isolate the TRAIL DISC. The complexes were subsequently washed four times with TRAIL DISC IP lysis buffer and eluted with elution buffer with 0.1 M dithiothreitol at room temperature for 2 hours. The protein complexes were methanol/chloroform-precipitated and resolved on 15% SDS-polyacrylamide gels. […]
293 HEK cells were chosen due to their ability to be transfected and relative resistance to TRAIL-induced apoptosis. […] The DISC was then immunoprecipitated and analyzed for the presence of the exogenous KILLER/DR5 receptor along with FADD and caspase 8. […]

SW480 cells [5] = assay: PARP cleavage Western blot after transient transfection; conditions: 16 hours after transfection
Protocol: Transfections, in Vitro Translation, and Western Blotting. The colon cancer cell line SW480 was maintained and transfected as described previously (Wu, G. S., et al., Nat. Genet. 17:141-143 (1997)). Protein extracts were harvested in 1×Laemmli sample buffer 16 hours after transfection. PARP and Myc immunoblots were performed following SDS-polyacrylamide gel electrophoresis. Horseradish peroxidase-conjugated secondary antibody (1:5000) treatments were followed by enhanced chemiluminescence. In vitro translation reactions were carried out using 1 μg of wild-type or mutant KILLER/DR5 plasmid DNA and a T7-coupled reticulocyte lysate system.
as §1, with “The first method involved cotransfection of the mutant receptor along with pCMVb gal.” left out, “To specifically measure apoptosis, this study used a cotransfection based flow cytometric assay to functionally assess apoptotic signaling of each substitution mutant.” left out

Compound: Bcl-XL: stably over-expressed Bcl-XL, specific inhibitor of caspase 9 activation
- inhibition of p53-mediated death after Ad-p53 infection (sub-G1) (SW480 cell lines): partially inhibit

Compound: CC[C@H](C)[C@H](NC(=O)OCc1ccccc1)C(=O)N[C@@H](CCC(=O)OC)C(=O)N[C@H](C(=O)N[C@@H](CC(=O)OC)C(=O)CF)[C@@H](C)O [Z-IETD-FMK] (Cbz-IE(OMe)TD(OMe)-CH2F)
- inhibition of p53-dependent apoptosis (activated caspase 3) [1]: could be inhibited

Compound: K388A: KILLER/DR5 death domain alanine point mutant
- Apoptotic ability (Table II) (SW480 cells [2]; 18 hours after transfection): WT
- Sub-G1 peak % WT (alanine scanning mutants) (SW480 cells [2]; 18 hours after transfection, transfection-induced death subtracted, wild-type death set to 100%, three independent experiments): 101 ± 11.3 % WT
- Blue cells % of vector (SW480 cells [3]): 9 ± 1.5 % of vector

Compound: COC(=O)CC[C@H](NC(=O)[C@H](CC(C)C)NC(=O)OCc1ccccc1)C(=O)N[C@@H](Cc1cnc[nH]1)C(=O)N[C@@H](CC(=O)OC)C(=O)CF [Z-LETD-FMK, Z-LEHD-FMK] (Cbz-LE(OMe)HD(OMe)-CH2F)
- inhibition of p53-dependent apoptosis (activated caspase 3) [1]: could be inhibited

Compound: Wild-type KILLER/DR5: wild-type TRAIL receptor KILLER/DR5, Myc-His tagged expression construct
- sub-G1 peak (SW480 cells [2]; at 18 hours, absolute value set as 100% wild-type death): ~40%
- FADD and caspase 8 recruitment to TRAIL DISC [4]: robust recruitment of both FADD and caspase 8
- PARP cleavage (SW480 cells [5]): efficiently caused PARP cleavage
- Blue cells % of vector (SW480 cells [3]): 8 ± 0.2 % of vector
- blue cell staining retained (SW480 cells [3]; text summary of Table I): 8%
